According to paper PMC9138991, “Effect of Trimethine Cyanine Dye- and Folate-Conjugation on the In Vitro Biological Activity of Proapoptotic Peptides” (Biomolecules, 2022):
Where a SMILES comes first, the peptide text is derived from it. Side-chain parts run from the residue outwards. [ ]: non-standard residue; d: D form. The star is where a group is joined. Pteroyl = Nc1nc2ncc(CNc3ccc(C(=O)*)cc3)nc2c(=O)[nH]1; Cha = N[C@@H](CC1CCCCC1)C(=O)O; dCha = N[C@H](CC1CCCCC1)C(=O)O

Key:
Format in all cases: cell-based, human
[1] = test system: KB, MCF7, SK-OV-3, and HEK293 cells; assay: Cell viability assay (CellTiter-Blue), statements over all tested cell lines; details: folate receptor α-high KB and SK-OV-3 versus MCF7 and HEK293
Experimental: (§1) SK-OV-3, MCF7, and HEK293 cells were seeded at a density of 2 × 10^4 cells per well in a Nunc™ MicroWell™ 96-well plate and grown at 37 °C in a 5% CO2 atmosphere in DMEM supplemented with 10% (v/v) FBS for 24 h. KB cells were seeded at a density of 7 × 10^3 cells per well in a 96-well plate and grown at 37 °C in a 5% CO2 atmosphere in folic acid-depleted RPMI-1640 medium supplemented with 10% (v/v) FBS for 24 h. Stock solutions of compounds 2–6 and 11–13 were obtained by dissolving the compounds in sterile deionized water. Compounds 1, and 7–10 were dissolved in pure DMSO. The stock solutions were diluted into the proper medium (according to the cell line tested) supplemented with 10% FBS to the appropriate concentration, and cells in each well were incubated with 100 µL of the solution. The solutions in each well were then adjusted to a concentration of 1% (v/v) DMSO. After 24 h at 37 °C, 20 µL of CellTiter-Blue™ was added to each well. The plate was incubated for another 4 h at 37 °C before analysis on a Perkin Elmer Victor X plate reader (excitation 531 nm; emission 595 nm). Each data point was calculated from a minimum of nine values resulting from three biological replicates (i.e., cells split from three different passages); each biological replicate is calculated from three technical replicates (i.e., cells split from the same passage). Value from media-only with CellTiter-Blue™ was set at 0% viability. This value was then subtracted from the values from cell-only (i.e., non-treated) wells with CellTiter-Blue™ in each biological replicate and set as 100% viability. For treatments of Cy3-containing compounds, blanks were generated with cell-free wells containing the compounds incubated for 24 h before addition of CellTiter-Blue™. The fluorescent reading for these wells was deducted from the treatment readings. Dose-response fitting curves were generated using Origin, version 2019b, OriginLab Corporation, Northampton, MA, USA (Figures S21–S24, Supplementary Materials).
(§2) Comparison of cytotoxicity fitting curves was achieved by applying the extra sum-of-squares F test, performed using GraphPad Prism version 9 for Windows, GraphPad Software, La Jolla, California, USA (https://www.graphpad.com/). […] Statistical analysis on the flow cytometry data was achieved by applying the unpaired two-tailed t-test test, performed using GraphPad Prism version 9 for Windows, GraphPad Software, La Jolla California USA, USA (https://www.graphpad.com/).
Cytotoxicity of 1–13 was evaluated using the CellTiter-Blue assay on KB, MCF7, SK-OV-3, and HEK293 cells. KB cells are derived from human cervical cancer, while SK-OV-3 cells are derived from human ovarian cancer. […] This feature is of particular relevance in anticancer applications, as it can be exploited for selective targeting and delivery. MCF7 is a cell line derived from human breast cancer with low levels of folate receptor α [27]. Therefore, it can serve as the negative control for folate receptor α mediated tumor-targeted drug delivery systems. HEK293 is a non-cancer cell line and was chosen to evaluate the specificity of the tested compounds toward cancer cells.

HEK293 cells = assay: Cell viability assay (CellTiter-Blue), HEK293 cells; details: 2 × 10^4 cells per well, DMEM + 10% FBS, 1% DMSO, 24 h at 37 °C, then CellTiter-Blue 4 h, three biological replicates fitted in Origin, standard error in brackets
Experimental: (§3) KB and MCF7 cells were kindly gifted by Prof. Arwyn T. Jones (Cardiff University), HEK293 cells were purchased from Public Health England, and SK-OV-3 cells were purchased from National Collection of Authenticated Cell Cultures (https://cell-bank.org.cn/). Cells were routinely tested for mycoplasma infection. KB and SK-OV-3 cells were maintained in T75 flasks at 37 °C in a 5% CO2 atmosphere in folic acid-depleted Roswell Park Memorial Institute (RPMI)-1640 medium supplemented with 10% (v/v) fetal bovine serum (FBS). MCF7 and HEK293 cells were maintained in T75 flasks at 37 °C in a 5% CO2 atmosphere in Dulbecco’s Modified Eagle’s medium (DMEM) supplemented with 10% (v/v) FBS. Cells were maintained at a sub-confluent monolayer and split at 80–85% confluency. For splitting, cells were washed with PBS, trypsinized in 1 mL of trypsin, and 200 µL of the 1000 µL trypsin cell suspension was re-suspended in 12 mL fresh DMEM containing 10% (v/v) FBS in a new T75 flask. KB and SK-OV-3 cells were used for biological experiments after being maintained for at least 10 days in folic acid-depleted RPMI-1640 medium.
as §1, §2
(§4) Cytotoxicity of 1–13 was evaluated using the CellTiter-Blue assay on KB, MCF7, SK-OV-3, and HEK293 cells. KB cells are derived from human cervical cancer, while SK-OV-3 cells are derived from human ovarian cancer. […] This feature is of particular relevance in anticancer applications, as it can be exploited for selective targeting and delivery. […]

MCF7 cells = assay: Cell viability assay (CellTiter-Blue), MCF7 cells; details: MCF7 cells, 2 × 10^4 cells per well, DMEM + 10% FBS, 1% DMSO, 24 h at 37 °C, then CellTiter-Blue 4 h; three biological replicates fitted in Origin, standard error in brackets
Experimental: as §3, §1, §2, §4

SK-OV-3 cells = assay: Cell viability assay (CellTiter-Blue), SK-OV-3 cells; details: 2 × 10^4 cells per well, medium + 10% FBS, 1% DMSO, 24 h at 37 °C, then CellTiter-Blue 4 h, three biological replicates fitted in Origin, standard error in brackets
Experimental: as §3, §1, §2, §4

KB cells = assay: Cell viability assay (CellTiter-Blue), KB cells; details: 7 × 10^3 cells per well, folic acid-depleted RPMI-1640 + 10% FBS, 1% DMSO, 24 h at 37 °C, then CellTiter-Blue 4 h, three biological replicates fitted in Origin, standard error in brackets
Experimental: as §3, §1, §2, §4

SMILES | Selectivity of cytotoxicity between cell lines, in words [1] | EC50 (HEK293 cells) | EC50 (MCF7 cells) | EC50 (SK-OV-3 cells) | EC50 (KB cells)
CC(=O)N[C@@H](CCCCNC(=O)[C@H](CCC(=O)O)NC(=O)c1ccc(NCc2cnc3nc(N)nc(O)c3n2)cc1)C(=O)N[C@H](CCCCN)C(=O)N[C@H](CC(C)C)C(=O)N[C@H](C)C(=O)N[C@H](CCCCN)C(=O)N[C@H](CC(C)C)C(=O)N[C@H](C)C(=O)N[C@H](CCCCN)C(=O)N[C@H](CCCCN)C(=O)N[C@H](CC(C)C)C(=O)N[C@H](C)C(=O)N[C@H](CCCCN)C(=O)N[C@H](CC(C)C)C(=O)N[C@H](C)C(=O)N[C@H](CCCCN)C(N)=O [Compound 12] | enhanced toxicity in KB but not in SK-OV-3 cells when compared to MCF7 and HEK293 cells | > 400 µM | > 400 µM | 388 µM | 151 µM
CC(=O)N[C@@H](CCCCNC(=O)[C@H](CCC(=O)O)NC(=O)c1ccc(NCc2cnc3nc(N)nc(O)c3n2)cc1)C(=O)N[C@H](CCCCN)C(=O)N[C@H](CC1CCCCC1)C(=O)N[C@H](C)C(=O)N[C@H](CCCCN)C(=O)N[C@@H](CC1CCCCC1)C(=O)N[C@H](C)C(=O)N[C@H](CCCCN)C(=O)N[C@H](CCCCN)C(=O)N[C@@H](CC1CCCCC1)C(=O)N[C@H](C)C(=O)N[C@H](CCCCN)C(=O)N[C@H](CC1CCCCC1)C(=O)N[C@H](C)C(=O)N[C@H](CCCCN)C(N)=O [Compound 13] (Ac-K([Glu-Pteroyl])[dK][dCha][dA][dK][Cha][dA][dK][dK][Cha][dA][dK][dCha][dA][dK]-NH2) | significantly higher | 20.4 µM | 26.9 µM | 41.5 µM | 9.8 µM
